The values below come from patent publication US20060110401A1, “Mixture of peptides from c and ns3 proteins of the hepatitis c virus and applications thereof” (priority 2002, published 2006).

Read-outs that look alike come from different tables or passages of the source. Marks after values point to notes of the source that are not given here. Residues, ends and D or L forms follow the SMILES beside them.

Test [1] deals with HLA-DR11 (DRB1*1101) (Homo sapiens, UniProt P01903+P01911, A100R/A169T/A87E/I96F/K41T/L162R/M171V/P40S/Q125H/Q178H/Q39Y/Q99D/R42S/S66Y/T262R/V115G/W38E). Description: biochemical. The class given is binding. To be noted: read-out: binds with good affinity to DR11.
Chain of HLA-DR11 (DRB1*1101) (P01903 26-254 limits assumed, other chains not shown): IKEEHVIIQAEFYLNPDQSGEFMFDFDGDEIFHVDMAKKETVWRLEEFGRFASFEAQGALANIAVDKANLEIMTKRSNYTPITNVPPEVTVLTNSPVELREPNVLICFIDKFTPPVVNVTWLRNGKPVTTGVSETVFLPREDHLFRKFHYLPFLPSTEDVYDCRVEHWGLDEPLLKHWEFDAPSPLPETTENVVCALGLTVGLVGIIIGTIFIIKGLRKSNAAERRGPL
The target of test [2] is T1, HLA-DRB5 (DRB5*0101) (Homo sapiens, UniProt P01903+Q30154).
T1 construct: endogenous in cells; host or cells: homozygous EBV-transformed human B lymphocyte lines; immunopurified with antibody L243
Description: biochemical. Format: binding. To be noted: read-out: binds with good affinity to DRB5.

Test [3] addresses T2, HLA-DR1 (DRB1*0101) (Homo sapiens, UniProt P01903+P01911, A100R/D57E/F55L/F60I/F76Y/I96L/L162R/M171V/P40L/Q125E/R42F/V115G/Y59C).
T2 construct: endogenous in cells; host or cells: homozygous EBV-transformed human B lymphocyte lines; immunopurified with antibody L243
Kind of test: biochemical. To be noted: for IC50: DRB1*0101. Format: binding.

Test [4] addresses HLA-DR7 (DRB1*0701) (Homo sapiens, UniProt P01903+P01911, A100R/A102G/A103Q/D57E/D86V/E43K/F76Y/K127E/L162R/M171V/P40G/Q125H/Q99D/R33Q/R42Y/R54Q/S133A/S66F/T210M/V115G/Y107V/Y59L/Y89S). Kind of test: biochemical. The class given is binding. To be noted: read-out: binds with good affinity to DR7.
Test [5] concerns DRB3. Kind of test: DRB3.
Test [6] concerns DRB4. Description: DRB4. An excerpt:
Table printed on a drawing sheet, Figure 2
Where the first naming reader finds the target: head: DRB4

The target of test [7] is T3, HLA-DR15 (DRB1*1501) (Homo sapiens, UniProt P01903+P01911).
T3 construct: endogenous in cells; host or cells: homozygous EBV-transformed human B lymphocyte lines; immunopurified with antibody L243
Description: biochemical. The class given is binding. The note with it: DRB1*1501; read-out: binds with good affinity to DR15.

For test [8], the system named is DRB5. Kind of test: DRB5.
Test [9] has as its target T4, HLA-DRB4 (DRB4*0101) (Homo sapiens, UniProt P01903+P13762, G164S).
T4 construct: endogenous in cells; host or cells: homozygous EBV-transformed human B lymphocyte lines; immunopurified with antibody L243
Description: biochemical. The class given is binding.

For test [10], the system named is T lymphocytes derived from PBMCs from patients chronically infected with HCV. Format: cell-based, human.
Test [11] concerns DP401. Description: DP401.
For test [12], the system named is DP402. Kind of test: DP402.
The test system of test [13] is DR1. Description: DR1.
In test [14] the test system is DR4. Kind of test: DR4.
The subject of test [15] is DR15. Kind of test: DR15.
The mark [16] stands for this setting: read-out: binds with good affinity to DR1.
[17] abbreviates: competition with biotinylated tracer HA 306-318, read-out: IC50, binding to HLA-DR1.
Setting [18] is: patient 067, supernatant 48 h, —: not detected.
[19] abbreviates: patient 078, supernatant 48 h, —: not detected.
Where [20] appears, read: patient 093, supernatant 48 h, —: not detected.
The mark [21] stands for this setting: patient 630, supernatant 48 h, —: not detected.
[22] abbreviates: patient 659, supernatant 48 h, —: not detected.
Where [23] appears, read: patient 815, supernatant 48 h, —: not detected.
Setting [24] is: patient 862, supernatant 48 h, —: not detected.

As for `CC[C@H](C)[C@H](NC(=O)[C@@H](NC(=O)[C@H](CCCNC(=N)N)NC(=O)[C@@H](NC(=O)CNC(=O)[C@H](C)NC(=O)CNC(=O)[C@H](Cc1c[nH]cn1)NC(=O)[C@H](Cc1ccc(O)cc1)NC(=O)[C@@H](NC(=O)[C@@H](NC(=O)[C@H](Cc1c[nH]c2ccccc12)NC(=O)[C@H](C)NC(=O)[C@@H](NC(=O)CN)C(C)C)[C@@H](C)O)C(C)C)[C@@H](C)O)[C@@H](C)O)C(=O)N[C@@H](C)C(=O)N[C@@H](CO)C(=O)N1CCC[C@H]1C(=O)O` [11N 1076-1093] (H-GVAWTVYHGAGTRTIASP-OH; N-terminus and C-terminus assumed), the IC50 in test [1] was under 1000 nM; in test [2] it was under 1000 nM; in test [3] (setting [16]), under 1000 nM; in test [4], under 1000 nM; in [5], 6000 nM; in [6] it was 60000 nM. The IC50 in test [7] was under 1000 nM; in [8], 100 nM.
On to `CC[C@H](C)[C@H](NC(=O)[C@H](Cc1c[nH]cn1)NC(=O)[C@@H](NC(=O)[C@H](CC(C)C)NC(=O)CNC(=O)[C@@H](N)[C@@H](C)O)[C@@H](C)O)C(=O)N[C@@H](CC(=O)O)C(=O)N[C@@H](C)C(=O)N[C@@H](Cc1c[nH]cn1)C(=O)N[C@@H](Cc1ccccc1)C(=O)N[C@@H](CC(C)C)C(=O)N[C@@H](CO)C(=O)N[C@@H](CCC(N)=O)C(=O)N[C@H](C(=O)N[C@@H](CCCCN)C(=O)O)[C@@H](C)O` [29N 1563-1577], for which the IC50 is 8 nM in test [3] (setting [17]) and 40000 nM in test [9] (tracer E2/E168, read-out: IC50, binding to HLA-DRB4).
For tetanus toxin [TT], the IL4 in [10] was found to be 24 pg/mL.
Take phytohemagglutinin [PHA]: the IFNγ is 2447 pg/mL in [10] (setting [18]); 2249 pg/mL in test [10] (setting [19]); 8542 pg/mL in [10] (setting [20]); 474 pg/mL in test [10] (setting [21]); “— 187 pg/ml” in test [10] (setting [22]); 1979 pg/mL in test [10] (setting [23]). Also, in test [10] (setting [24]), the IFNγ is 9902 pg/mL. Moreover, the IL2 in test [10] (setting [18]) was 1337 pg/mL; in [10] (setting [19]) it was 207 pg/mL; in test [10] (patient 093, assay at 24 h instead of 48 h) it was 1402* pg/ml; in [10] (patient 342, supernatant 48 h, —: not detected), 125 pg/mL; in [10] (setting [21]), 18874 pg/mL; in test [10] (setting [22]), 153 — pg/ml. In addition, the IL2 in test [10] (setting [23]) turned out to be 1002 pg/mL; in test [10] (setting [24]) it was 60 pg/mL. The IL4 in test [10] (setting [18]) was 632 pg/mL; in test [10] (setting [19]) it was 55 pg/mL; in test [10] (setting [20]) it was 127 pg/mL; in test [10] (setting [21]) it was 251 pg/mL; in test [10] (setting [22]), 453 pg/mL; in test [10] (setting [23]), 5638 pg/mL. Moreover, the IL4 in [10] (setting [24]) came out at 9 pg/mL. For the same compound, the IL10 in test [10] (setting [18]) was 665 pg/mL; in test [10] (setting [19]) it was 207 pg/mL; in test [10] (setting [20]), 8551 pg/mL; in test [10] (setting [21]) it was 242 pg/mL; in [10] (setting [22]), 182 pg/mL; in test [10] (setting [23]), 497 pg/mL.
As for `CC[C@H](C)[C@H](NC(=O)CNC(=O)[C@H](CC(C)C)NC(=O)[C@H](C)NC(=O)[C@@H](NC(=O)[C@H](CC(C)C)NC(=O)[C@H](CCCCN)NC(=O)[C@H](C)NC(=O)[C@H](C)N)C(C)C)C(=O)N[C@@H](CC(N)=O)C(=O)N[C@@H](C)C(=O)N[C@H](C(=O)N[C@@H](C)C(=O)N[C@@H](Cc1ccc(O)cc1)C(=O)N[C@@H](Cc1ccc(O)cc1)C(=O)N[C@@H](CCCNC(=N)N)C(=O)NCC(=O)N[C@@H](CC(C)C)C(=O)N[C@@H](CC(=O)O)C(=O)N[C@H](C(=O)N[C@@H](CO)C(=O)N[C@H](C(=O)N[C@H](C(=O)N1CCC[C@H]1C(=O)N[C@H](C(=O)N[C@@H](CO)C(=O)NCC(=O)N[C@@H](CC(=O)O)C(=O)N[C@H](C(=O)O)C(C)C)[C@@H](C)O)[C@@H](C)CC)C(C)C)C(C)C)C(C)C` [24N 1404-1432], the IC50 in test [11] is 32700 nM; in test [12], 7040 nM; in test [13] it was 50 nM.
Regarding `CC[C@H](C)[C@H](NC(=O)[C@H](Cc1ccc(O)cc1)NC(=O)CNC(=O)[C@H](CCSC)NC(=O)[C@H](CC(C)C)NC(=O)[C@H](CC(=O)O)NC(=O)[C@H](C)NC(=O)[C@H](Cc1ccccc1)NC(=O)CNC(=O)[C@H](C)NC(=O)[C@@H](N)[C@@H](C)O)C(=O)N1CCC[C@H]1C(=O)N[C@@H](CC(C)C)C(=O)N[C@H](C(=O)NCC(=O)N[C@@H](C)C(=O)N1CCC[C@H]1C(=O)N[C@@H](CC(C)C)C(=O)NCC(=O)NCC(=O)N[C@@H](C)C(=O)N[C@@H](C)C(=O)N[C@@H](CCCNC(=N)N)C(=O)O)C(C)C` [5C 127-149] (H-TAGFADLMGYIPLVGAPLGGAAR-OH; N-terminus and C-terminus assumed), the IC50 was under 1000 nM in test [1]; under 1000 nM in test [2]; under 1000 nM in test [3] (setting [16]); 2 nM in test [13]; under 1000 nM in [4]; over 100000 nM in test [5]. For the same compound, the IC50 in test [7] was under 1000 nM; in [8] it was 3 nM.
Regarding `CC[C@H](C)[C@H](NC(=O)[C@@H]1CCCN1C(=O)[C@H](CCCNC(=N)N)NC(=O)[C@@H]1CCCN1C(=O)[C@H](CO)NC(=O)[C@H](CC(C)C)NC(=O)[C@H](CC(C)C)NC(=O)[C@H](CO)NC(=O)CNC(=O)[C@@H](N)CCCNC(=N)N)C(=O)N[C@@H](CO)C(=O)N[C@@H](Cc1ccc(O)cc1)C(=O)N[C@@H](CC(C)C)C(=O)N[C@@H](CCCCN)C(=O)NCC(=O)N[C@@H](CO)C(=O)N[C@@H](CO)C(=O)NCC(=O)NCC(=O)N1CCC[C@H]1C(=O)N[C@@H](CC(C)C)C(=O)N[C@@H](CC(C)C)C(=O)N[C@@H](C)C(=O)N1CCC[C@H]1C(=O)O` [14N 1149-1172] (H-RGSLLSPRPISYLKGSSGGPLLAP-OH; N-terminus and C-terminus assumed), the IC50 in test [2] is under 1000 nM; in test [14], 9000 nM; in test [12], over 100000 nM; in test [3] (setting [16]), under 1000 nM; in [9] (read-out: binds with good affinity to DRB4), under 1000 nM; in [13] it was 8 nM. Besides, the IC50 in test [4] is under 1000 nM; in test [6], 100 nM; in [7], under 1000 nM.
Regarding `CC[C@H](C)[C@H](NC(=O)[C@@H](NC(=O)[C@@H]1CCCN1C(=O)CNC(=O)[C@@H](N)CCCCN)C(C)C)C(=O)N[C@@H](CCC(N)=O)C(=O)N[C@@H](CCSC)C(=O)N[C@@H](Cc1ccc(O)cc1)C(=O)N[C@H](C(=O)N[C@@H](CC(N)=O)C(=O)N[C@H](C(=O)N[C@@H](CC(=O)O)C(=O)N[C@@H](CCC(N)=O)C(=O)N[C@@H](CC(=O)O)C(=O)N[C@@H](CC(C)C)C(=O)N[C@H](C(=O)NCC(=O)N[C@@H](Cc1c[nH]c2ccccc12)C(=O)N1CCC[C@H]1C(=O)N[C@@H](C)C(=O)N1CCC[C@H]1C(=O)N[C@@H](CCC(N)=O)C(=O)NCC(=O)N[C@@H](CO)C(=O)N[C@@H](CCCNC(=N)N)C(=O)N[C@@H](CO)C(=O)O)C(C)C)C(C)C)[C@@H](C)O` [12N 1094-1119] (H-KGPVIQMYTNVDQDLVGWPAPQGSRS-OH; N-terminus and C-terminus assumed), the IC50 in [12] is 3000 nM; in test [3] (setting [17]), over 10000 nM; in test [13], over 10000 nM; in test [5], over 10000 nM; in [15], 48 nM. Further, the “affinity for HLA-DR1 (in words)” value in test [3] (legend of FIG. 4) was “low affinity”.
